Experimental data published in patent US9340590B2 (priority 2011, dated 2016).
Read-outs that look alike come from different tables or passages of the source. Positions of bridges follow the written chain, without caps; N, C: chain ends. Non-standard residues stand in square brackets, D forms with d. Residues, ends and D or L forms follow the SMILES beside them. Bip = N[C@@H](Cc1ccc(-c2ccccc2)cc1)C(=O)O

Columns and labels:
Experiment in all cases: cell-based
hNav1.3 = hNav1.3 (Homo sapiens, UniProt Q9NY46); settings: IonWorks Quattro, use-dependent protocol, hNav1.3; read-out: IWQ Use Nav1.3
hNav1.5 = hNav1.5 (Homo sapiens, UniProt Q14524)
Chain of hNav1.5 (Q14524 whole entry, looked up): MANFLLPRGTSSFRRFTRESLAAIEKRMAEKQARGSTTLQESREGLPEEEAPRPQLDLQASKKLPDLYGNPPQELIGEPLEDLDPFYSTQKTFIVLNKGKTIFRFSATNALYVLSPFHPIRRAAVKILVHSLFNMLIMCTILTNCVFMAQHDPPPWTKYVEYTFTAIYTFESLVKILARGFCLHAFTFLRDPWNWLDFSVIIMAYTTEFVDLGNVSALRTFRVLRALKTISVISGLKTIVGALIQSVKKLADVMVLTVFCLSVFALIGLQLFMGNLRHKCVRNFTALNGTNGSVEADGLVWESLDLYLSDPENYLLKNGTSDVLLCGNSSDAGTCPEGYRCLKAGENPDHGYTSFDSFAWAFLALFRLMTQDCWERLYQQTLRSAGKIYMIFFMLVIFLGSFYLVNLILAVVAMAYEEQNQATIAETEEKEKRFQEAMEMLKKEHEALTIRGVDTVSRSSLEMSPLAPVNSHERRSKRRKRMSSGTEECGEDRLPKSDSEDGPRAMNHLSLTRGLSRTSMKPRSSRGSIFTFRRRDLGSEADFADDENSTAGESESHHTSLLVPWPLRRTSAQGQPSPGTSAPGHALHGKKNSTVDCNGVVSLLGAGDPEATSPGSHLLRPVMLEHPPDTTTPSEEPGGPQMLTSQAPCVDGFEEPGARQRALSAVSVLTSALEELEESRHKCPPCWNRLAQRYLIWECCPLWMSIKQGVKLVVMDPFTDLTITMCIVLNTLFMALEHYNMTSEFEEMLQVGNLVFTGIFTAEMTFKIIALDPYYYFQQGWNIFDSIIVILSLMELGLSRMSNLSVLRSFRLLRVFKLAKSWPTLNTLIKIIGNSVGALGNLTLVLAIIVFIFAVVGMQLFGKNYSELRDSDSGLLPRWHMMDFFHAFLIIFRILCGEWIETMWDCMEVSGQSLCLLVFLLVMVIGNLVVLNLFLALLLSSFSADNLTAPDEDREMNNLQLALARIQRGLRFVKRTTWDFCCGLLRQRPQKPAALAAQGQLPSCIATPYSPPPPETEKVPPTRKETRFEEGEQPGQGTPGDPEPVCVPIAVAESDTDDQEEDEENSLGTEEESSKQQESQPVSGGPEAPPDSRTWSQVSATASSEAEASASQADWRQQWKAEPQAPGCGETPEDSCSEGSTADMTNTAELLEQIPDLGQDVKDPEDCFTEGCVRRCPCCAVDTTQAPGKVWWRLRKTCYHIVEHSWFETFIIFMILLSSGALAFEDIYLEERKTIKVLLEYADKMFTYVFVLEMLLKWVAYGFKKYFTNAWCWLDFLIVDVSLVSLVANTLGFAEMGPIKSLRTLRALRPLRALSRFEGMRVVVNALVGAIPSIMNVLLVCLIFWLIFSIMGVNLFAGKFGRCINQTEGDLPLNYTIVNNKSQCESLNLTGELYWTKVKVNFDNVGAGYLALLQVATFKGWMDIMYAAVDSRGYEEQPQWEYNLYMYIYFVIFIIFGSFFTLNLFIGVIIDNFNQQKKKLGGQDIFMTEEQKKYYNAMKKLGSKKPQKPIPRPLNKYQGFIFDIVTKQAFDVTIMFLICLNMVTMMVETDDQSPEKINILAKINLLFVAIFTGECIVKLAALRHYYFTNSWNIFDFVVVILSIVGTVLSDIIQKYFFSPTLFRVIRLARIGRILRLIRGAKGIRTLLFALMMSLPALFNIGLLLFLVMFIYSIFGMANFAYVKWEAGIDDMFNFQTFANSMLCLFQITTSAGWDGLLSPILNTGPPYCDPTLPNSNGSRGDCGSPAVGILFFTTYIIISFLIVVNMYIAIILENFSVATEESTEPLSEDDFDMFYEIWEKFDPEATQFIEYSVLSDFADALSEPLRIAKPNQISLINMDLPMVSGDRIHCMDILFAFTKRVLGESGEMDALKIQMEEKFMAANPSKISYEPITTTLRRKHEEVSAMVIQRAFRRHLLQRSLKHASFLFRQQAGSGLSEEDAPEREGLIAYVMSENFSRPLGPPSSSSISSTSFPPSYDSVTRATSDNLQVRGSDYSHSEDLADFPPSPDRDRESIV

hNav1.7 = hNav1.7 (Homo sapiens, UniProt Q15858); assay type: cell-based; settings: read-out: IWQ Use Nav1.7
Chain of hNav1.7 (Q15858 whole entry, looked up): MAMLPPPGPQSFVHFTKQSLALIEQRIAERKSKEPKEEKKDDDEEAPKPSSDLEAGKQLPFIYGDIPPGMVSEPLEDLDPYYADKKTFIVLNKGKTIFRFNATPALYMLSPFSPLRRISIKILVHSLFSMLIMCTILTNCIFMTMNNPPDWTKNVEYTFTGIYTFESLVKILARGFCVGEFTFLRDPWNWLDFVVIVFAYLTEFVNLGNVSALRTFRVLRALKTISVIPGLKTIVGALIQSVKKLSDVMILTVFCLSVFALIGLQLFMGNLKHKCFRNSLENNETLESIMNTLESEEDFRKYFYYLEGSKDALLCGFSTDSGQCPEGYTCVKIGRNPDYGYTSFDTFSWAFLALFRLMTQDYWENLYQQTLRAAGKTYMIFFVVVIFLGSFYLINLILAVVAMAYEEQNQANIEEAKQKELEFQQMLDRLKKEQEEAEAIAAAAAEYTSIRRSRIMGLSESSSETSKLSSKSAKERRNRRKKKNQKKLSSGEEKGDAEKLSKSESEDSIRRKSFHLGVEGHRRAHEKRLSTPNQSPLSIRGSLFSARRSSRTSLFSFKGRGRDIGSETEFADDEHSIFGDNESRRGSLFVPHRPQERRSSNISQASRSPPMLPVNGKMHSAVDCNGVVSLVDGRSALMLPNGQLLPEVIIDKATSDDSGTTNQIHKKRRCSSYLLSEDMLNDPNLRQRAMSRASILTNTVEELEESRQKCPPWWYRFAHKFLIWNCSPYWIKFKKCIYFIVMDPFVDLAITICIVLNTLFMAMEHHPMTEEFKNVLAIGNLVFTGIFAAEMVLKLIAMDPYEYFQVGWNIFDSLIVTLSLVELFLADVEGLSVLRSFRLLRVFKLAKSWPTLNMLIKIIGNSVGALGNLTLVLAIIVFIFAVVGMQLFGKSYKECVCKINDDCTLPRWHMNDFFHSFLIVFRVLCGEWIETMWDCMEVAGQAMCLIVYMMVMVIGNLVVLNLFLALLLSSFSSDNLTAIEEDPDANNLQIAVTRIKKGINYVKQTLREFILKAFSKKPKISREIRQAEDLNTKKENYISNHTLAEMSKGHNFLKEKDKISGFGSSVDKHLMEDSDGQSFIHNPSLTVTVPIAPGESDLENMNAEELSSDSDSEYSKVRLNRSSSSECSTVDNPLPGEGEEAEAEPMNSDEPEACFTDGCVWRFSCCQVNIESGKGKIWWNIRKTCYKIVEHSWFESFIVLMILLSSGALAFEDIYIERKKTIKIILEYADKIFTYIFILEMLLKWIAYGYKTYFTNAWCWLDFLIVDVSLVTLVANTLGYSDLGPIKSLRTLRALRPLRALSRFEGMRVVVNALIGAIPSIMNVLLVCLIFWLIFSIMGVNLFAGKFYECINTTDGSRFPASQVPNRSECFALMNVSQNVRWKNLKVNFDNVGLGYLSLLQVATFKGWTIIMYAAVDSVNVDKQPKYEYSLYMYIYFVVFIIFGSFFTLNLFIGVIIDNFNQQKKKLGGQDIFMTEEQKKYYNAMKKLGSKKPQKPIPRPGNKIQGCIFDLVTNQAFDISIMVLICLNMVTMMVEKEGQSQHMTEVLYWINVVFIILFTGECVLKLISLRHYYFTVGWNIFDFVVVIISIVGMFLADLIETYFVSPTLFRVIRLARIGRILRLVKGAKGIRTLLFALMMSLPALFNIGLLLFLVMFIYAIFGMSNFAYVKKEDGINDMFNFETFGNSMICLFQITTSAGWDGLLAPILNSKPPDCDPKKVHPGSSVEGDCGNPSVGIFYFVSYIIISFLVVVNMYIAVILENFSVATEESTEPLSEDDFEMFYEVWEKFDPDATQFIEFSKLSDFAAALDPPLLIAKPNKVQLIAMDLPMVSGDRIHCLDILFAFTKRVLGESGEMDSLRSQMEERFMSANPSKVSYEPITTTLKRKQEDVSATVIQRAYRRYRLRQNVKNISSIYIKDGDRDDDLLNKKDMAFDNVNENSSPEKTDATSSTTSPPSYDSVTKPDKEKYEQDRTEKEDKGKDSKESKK

[1] = IonWorks Quattro, clamped to −110 mV, depolarized to −10 mV, 5 min after compound, n=2

CC[C@H](C)[C@@H]1NC(=O)[C@@H]2CSSC[C@@H]3NC(=O)[C@H](C(C)C)NC(=O)[C@H](CC(C)C)NC(=O)[C@H](CC(N)=O)NC(=O)[C@@H]4CCCN4C(=O)[C@H](CCCNC(=N)N)NC(=O)[C@H](CSSC[C@H](NC(=O)[C@@H](N)CC(=O)O)C(=O)N[C@@H](CC(C)C)C(=O)NCC(=O)N[C@@H](CC(C)C)C(=O)N[C@@H](CC(C)C)C(=O)N[C@@H](CCCNC(=N)N)C(=O)N[C@@H](CCCCN)C(=O)N2)NC(=O)[C@H](CSSC[C@@H](C(=O)N[C@@H](CCCCN)C(=O)N[C@@H](Cc2ccc(O)cc2)C(=O)N[C@H](C(=O)N[C@@H](Cc2ccccc2)C(N)=O)C(C)C)NC(=O)[C@H](Cc2c[nH]c4ccccc24)NC(=O)[C@H](CCCCN)NC(=O)[C@H](Cc2c[nH]cn2)NC(=O)[C@H]([C@@H](C)O)NC(=O)[C@H](CCCNC(=N)N)NC(=O)[C@H](CO)NC3=O)NC(=O)[C@H](CCCCN)NC(=O)[C@H](CC(=O)O)NC(=O)[C@H](CC(N)=O)NC(=O)[C@H](CC(=O)O)NC(=O)[C@@H]2CCCN2C1=O [compound 661] (H-DCLGLLRKCIPDNDKCCRPNLVCSRTHKWCKYVF-NH2; disulfide 2-17, 9-23, 16-30)
IC50 (hNav1.3): 320 nM
IC50 (hNav1.5; IonWorks Quattro, use-dependent protocol, hNav1.5, read-out: IWQ Use Nav1.5): > 5000 nM
IC50 (hNav1.7; IonWorks Quattro, use-dependent protocol, hNav1.7): 95 nM

CSCC[C@@H]1NC(=O)[C@H](Cc2ccccc2)NC(=O)CNC(=O)[C@H](CC(C)C)NC(=O)[C@@H](NC(=O)[C@@H](N)CC(=O)O)CSSC[C@@H]2NC(=O)[C@@H]3CSSC[C@@H](C(=O)N[C@@H](CCCCN)C(=O)N[C@@H](Cc4ccc(O)cc4)C(=O)N[C@H](C(=O)N[C@@H](Cc4ccccc4)C(N)=O)C(C)C)NC(=O)[C@H](Cc4c[nH]c5ccccc45)NC(=O)[C@H](CCCCN)NC(=O)[C@H](Cc4c[nH]cn4)NC(=O)[C@H]([C@@H](C)O)NC(=O)[C@H](CCCNC(=N)N)NC(=O)[C@H](CO)NC(=O)[C@H](CSSC[C@H](NC(=O)[C@H](CCCCN)NC(=O)[C@H](CCCNC(=N)N)NC1=O)C(=O)N[C@@H](CCSC)C(=O)N1CCC[C@H]1C(=O)N[C@@H](CC(=O)O)C(=O)N[C@@H](CC(N)=O)C(=O)N[C@@H](CC(=O)O)C(=O)N[C@@H](CCCCN)C(=O)N3)NC(=O)[C@H](C(C)C)NC(=O)[C@H](CC(C)C)NC(=O)[C@H](CC(N)=O)NC(=O)[C@@H]1CCCN1C(=O)[C@H](CCCNC(=N)N)NC2=O [compound 307] (H-DCLGFMRKCMPDNDKCCRPNLVCSRTHKWCKYVF-NH2; disulfide 2-17, 9-23, 16-30)
IC50 (hNav1.5; IonWorks Quattro, Use, read-out: IWQ Use Nav1.5): 3380 nM
IC50 (hNav1.7): 90 nM

CC[C@H](C)[C@@H]1NC(=O)[C@@H]2CSSC[C@@H]3NC(=O)[C@H](C(C)C)NC(=O)[C@H](CC(C)C)NC(=O)[C@H](CC(N)=O)NC(=O)[C@@H]4CCCN4C(=O)[C@H](CCCNC(=N)N)NC(=O)[C@H](CSSC[C@H](NC(=O)[C@@H](N)CC(=O)O)C(=O)N[C@@H](CC(C)C)C(=O)NCC(=O)N[C@@H](Cc4ccccc4)C(=O)N[C@@H](CCSC)C(=O)N[C@@H](CCCNC(=N)N)C(=O)N[C@@H](CCCCN)C(=O)N2)NC(=O)[C@H](CSSC[C@@H](C(=O)N[C@@H](CCCCN)C(=O)N[C@@H](Cc2ccc(-c4ccccc4)cc2)C(=O)N[C@H](C(=O)N[C@@H](Cc2ccccc2)C(N)=O)C(C)C)NC(=O)[C@H](Cc2c[nH]c4ccccc24)NC(=O)[C@H](CCCCN)NC(=O)[C@H](Cc2c[nH]cn2)NC(=O)[C@H]([C@@H](C)O)NC(=O)[C@H](CCCNC(=N)N)NC(=O)[C@H](CO)NC3=O)NC(=O)[C@H](CCCCN)NC(=O)[C@H](CC(=O)O)NC(=O)[C@H](CC(N)=O)NC(=O)[C@H](CC(=O)O)NC(=O)[C@@H]2CCCN2C1=O [compound 376] (H-DCLGFMRKCIPDNDKCCRPNLVCSRTHKWCK[Bip]VF-NH2; disulfide 2-17, 9-23, 16-30)
IC50 (hNav1.5; Table 25, IonWorks Quattro, use, […], read-out: IWQ Use Nav1.5): 2900 nM
IC50 (hNav1.7; Table 25, IonWorks Quattro, use, […]): 30 nM

CC[C@H](C)[C@@H]1NC(=O)[C@@H]2CSSC[C@@H]3NC(=O)[C@H](C(C)C)NC(=O)[C@H](CC(C)C)NC(=O)[C@H](CC(N)=O)NC(=O)[C@@H]4CCCN4C(=O)[C@H](CCCNC(=N)N)NC(=O)[C@H](CSSC[C@H](NC(=O)[C@@H](N)CC(=O)O)C(=O)N[C@@H](CC(C)C)C(=O)NCC(=O)N[C@@H](Cc4ccccc4)C(=O)N[C@@H](CCSC)C(=O)N[C@@H](CCCNC(=N)N)C(=O)N[C@@H](CCCCN)C(=O)N2)NC(=O)[C@H](CSSC[C@@H](C(=O)N[C@@H](CCCCN)C(=O)N[C@@H](Cc2ccc(O)cc2)C(=O)N[C@H](C(=O)N[C@@H](Cc2ccccc2)C(N)=O)C(C)C)NC(=O)[C@H](Cc2c[nH]c4ccccc24)NC(=O)[C@H](CC(=O)O)NC(=O)[C@H](Cc2c[nH]cn2)NC(=O)[C@H]([C@@H](C)O)NC(=O)[C@H](CCCNC(=N)N)NC(=O)[C@H](CO)NC3=O)NC(=O)[C@H](CCCCN)NC(=O)[C@H](CC(=O)O)NC(=O)[C@H](CC(N)=O)NC(=O)[C@H](CC(=O)O)NC(=O)[C@@H]2CCCN2C1=O [SEQ ID NO: 750, [Asp28]GpTx-1] (H-DCLGFMRKCIPDNDKCCRPNLVCSRTHDWCKYVF-NH2; disulfide 2-17, 9-23, 16-30)
IC50 (hNav1.5; read-out: IWQ Use Nav1.5): 37900 nM
IC50 (hNav1.7; IonWorks Quattro, use-dependent block, hNav1.7): 730 nM

CC[C@H](C)[C@@H]1NC(=O)[C@@H]2CSSC[C@@H]3NC(=O)[C@H](C(C)C)NC(=O)[C@H](CC(C)C)NC(=O)[C@H](CC(N)=O)NC(=O)[C@@H]4CCCN4C(=O)[C@H](CCCNC(=N)N)NC(=O)[C@H](CSSC[C@H](NC(=O)[C@@H](N)CC(=O)O)C(=O)N[C@@H](CC(C)C)C(=O)NCC(=O)N[C@@H](Cc4ccccc4)C(=O)N[C@@H](Cc4ccc(I)cc4)C(=O)N[C@@H](CCCNC(=N)N)C(=O)N[C@@H](CCCCN)C(=O)N2)NC(=O)[C@H](CSSC[C@@H](C(=O)N[C@@H](CCCCN)C(=O)N[C@@H](Cc2ccc(O)cc2)C(=O)N[C@H](C(=O)N[C@@H](Cc2ccccc2)C(N)=O)C(C)C)NC(=O)[C@H](Cc2c[nH]c4ccccc24)NC(=O)[C@H](CCCCN)NC(=O)[C@H](Cc2c[nH]cn2)NC(=O)[C@H]([C@@H](C)O)NC(=O)[C@H](CCCNC(=N)N)NC(=O)[C@H](CO)NC3=O)NC(=O)[C@H](CCCCN)NC(=O)[C@H](CC(=O)O)NC(=O)[C@H](CC(N)=O)NC(=O)[C@H](CC(=O)O)NC(=O)[C@@H]2CCCN2C1=O [SEQ ID NO: 291]
IC50 (hNav1.5; IonWorks Quattro, clamped to −110 mV, depolarized to −10 mV, 5 min after compound, n=2, read-out: IWQ Use Nav1.5): 950 nM
IC50 (hNav1.7; [1]): 20 nM

CC[C@H](C)[C@@H]1NC(=O)[C@@H]2CSSC[C@@H]3NC(=O)[C@H](C(C)C)NC(=O)[C@H](CC(C)C)NC(=O)[C@H](CC(N)=O)NC(=O)[C@@H]4CCCN4C(=O)[C@H](CCCNC(=N)N)NC(=O)[C@H](CSSC[C@H](NC(=O)[C@@H](N)CC(=O)O)C(=O)N[C@@H](CC(C)C)C(=O)NCC(=O)N[C@@H](Cc4ccccc4)C(=O)N[C@@H](CCSC)C(=O)N[C@@H](CCCNC(=N)N)C(=O)N[C@@H](CCCCN)C(=O)N2)NC(=O)[C@H](CSSC[C@@H](C(=O)N[C@@H](CCCCN)C(=O)N[C@@H](Cc2ccc(O)cc2)C(=O)N[C@H](C(=O)N[C@@H](Cc2ccccc2)C(N)=O)C(C)C)NC(=O)[C@H](Cc2ccccc2)NC(=O)[C@H](CCCCN)NC(=O)[C@H](Cc2c[nH]cn2)NC(=O)[C@H]([C@@H](C)O)NC(=O)[C@H](CCCNC(=N)N)NC(=O)[C@H](CO)NC3=O)NC(=O)[C@H](CCCCN)NC(=O)[C@H](CC(=O)O)NC(=O)[C@H](CC(N)=O)NC(=O)[C@H](CC(=O)O)NC(=O)[C@@H]2CCCN2C1=O [compound 112] (H-DCLGFMRKCIPDNDKCCRPNLVCSRTHKFCKYVF-NH2; disulfide 2-17, 9-23, 16-30)
IC50 (hNav1.5; Table 24, IonWorks Quattro, use, […], read-out: IWQ Use Nav1.5): 6210 nM
IC50 (hNav1.7; Table 24, IonWorks Quattro, use, […]): 2180 nM

CC[C@H](C)[C@@H]1NC(=O)[C@@H]2CSSC[C@@H]3NC(=O)[C@H](C(C)C)NC(=O)[C@H](CC(C)C)NC(=O)[C@H](CC(N)=O)NC(=O)[C@@H]4CCCN4C(=O)[C@H](CCCNC(=N)N)NC(=O)[C@H](CSSC[C@H](NC(=O)[C@@H](N)CC(=O)O)C(=O)N[C@@H](CC(C)C)C(=O)NCC(=O)N[C@@H](CCC(=O)O)C(=O)N[C@@H](CCSC)C(=O)N[C@@H](CCCNC(=N)N)C(=O)N[C@@H](CCCCN)C(=O)N2)NC(=O)[C@H](CSSC[C@@H](C(=O)N[C@@H](CCCCN)C(=O)N[C@@H](Cc2ccc(O)cc2)C(=O)N[C@H](C(=O)N[C@@H](Cc2ccccc2)C(N)=O)C(C)C)NC(=O)[C@H](Cc2c[nH]c4ccccc24)NC(=O)[C@H](CCCCN)NC(=O)[C@H](Cc2cnc[nH]2)NC(=O)[C@H]([C@@H](C)O)NC(=O)[C@H](CCCNC(=N)N)NC(=O)[C@H](CO)NC3=O)NC(=O)[C@H](CCCCN)NC(=O)[C@H](CC(=O)O)NC(=O)[C@H](CC(N)=O)NC(=O)[C@H](CC(=O)O)NC(=O)[C@@H]2CCCN2C1=O [SEQ ID NO: 143] (H-DCLGEMRKCIPDNDKCCRPNLVCSRTHKWCKYVF-NH2; disulfide 2-17, 9-23, 16-30)
IC50 (hNav1.5; IWQ Use Nav1.5): 10000 nM
IC50 (hNav1.7; [1]): 17700 nM
